# Publication PMC11036078, “PD‐1 inhibition with retifanlimab and/or arginase inhibition with INCB001158 in Japanese patients with solid tumors: A phase I study” (Cancer Medicine, 2024)
# Values joined by “and” are separate entries in the source; they are usually repeats but may differ in a detail not shown here. Equal values may be shown once. Read-outs that look alike come from different tables or passages of the source.
# Tests used:
# [1] = Safety and tolerability (TEAEs, DLTs, irAEs; NCI CTCAE v5.0), phase Ib POD1UM-104; conditions: in vivo
# Method: This was a phase Ib, open‐label, multicenter study (POD1UM‐104 [NCT03910530]). The study was conducted in 2 parts. In Part 1, patients received single‐agent retifanlimab or escalating doses of single‐agent INCB001158 to confirm the RP2D of each agent. Single‐agent dosing was performed to comply with local regulations. In Part 2, patients received the combination of retifanlimab and INCB001158 at their respective RP2D determined in Part 1, to further explore safety and preliminary evidence of clinical activity. Treatment cycles in Part 1 and Part 2 were 28 days, and patients could receive treatment for up to 2 years, or until disease progression, unacceptable toxicity, death, or patient withdrawal.
# In Part 1, 6 patients received retifanlimab 500 mg every 4 weeks (Q4W), given as an i.v. infusion over 60 min; this dose was based on the RP2D determined from global studies. The starting dose of INCB001158 was 75 mg taken orally twice daily (BID). Dose escalation of INCB001158 followed a standard 3 + 3 design; if 75 mg BID was deemed to be tolerable in at least 3 patients, a 100‐mg BID dose level cohort comprising at least 3 patients would be opened.
# DLTs were assessed by the investigator according to the National Cancer Institute (NCI) Common Terminology Criteria for Adverse Events (CTCAE) v5.0 criteria (Table S1).
# The primary endpoints of the study were safety, tolerability, DLTs, and RP2D of single‐agent retifanlimab, INCB001158, and the combination. Adverse events (AEs) were graded by NCI CTCAE v5.0, and immune‐related adverse events (irAEs) were monitored as AEs of special interest. Physical examinations, monitoring of vital signs, electrocardiograms, and laboratory assessments were conducted throughout the study.
# (§1) Safety and efficacy analyses were conducted in the full analysis set, which comprised all enrolled patients who received at least 1 dose of the study drug.
# (§2) Safety data were summarized using descriptive statistics. PK parameters were summarized by study part, treatment regimen, cohort, dose levels, and/or visit. ORR and DCR were reported with their exact 95% confidence intervals (CIs); DOR was based on the Kaplan–Meier estimate of the distribution function, and the estimated median along with 95% CI was reported. Statistical analyses were performed using SAS® software v9.4 or later (SAS Institute Inc., Cary, NC, USA).
# advanced solid tumors = experiment: Clinical activity by investigator per RECIST v1.1 (ORR, DCR, DOR); assay type: in vivo, Japanese patients; conditions: n = 6 per group
# Method: Preliminary clinical activity of single‐agent retifanlimab and INCB001158, and the combination, was an additional secondary endpoint. Diagnostic imaging was performed by computed tomography scan every 8 ± 1 weeks. Clinical activity was assessed by measuring overall response rate (ORR), defined as the percentage of patients experiencing a complete or partial response (CR or PR) as determined by the investigator according to Response Evaluation Criteria in Solid Tumors (RECIST) v1.1; disease control rate (DCR), defined as the percentage of patients maintaining either an objective response or stable disease (SD) for at least 12 weeks per RECIST v1.1; and duration of response (DOR), defined as the time from first observed response until onset of progressive disease (PD) as determined by the investigator according to RECIST v1.1 or death from any cause.
# as §1, §2
# urea cycle = experiment: Pharmacodynamics: urinary orotic acid and plasma ammonia (urea cycle inhibition); assay type: in vivo, Japanese patients
# Method: Pharmacodynamics of INCB001158 alone or in combination were assessed as an exploratory objective. Urine was collected at regular intervals from patients in the INCB001158 monotherapy and combination groups to assess urinary orotic acid levels and evaluate whether INCB001158 inhibits the urea cycle. Plasma samples from patients in these groups were also assessed for ammonia, arginine, and ornithine levels.
# [2] = system: advanced/metastatic solid tumours; conditions: cited from earlier work
# T‐cell proliferation = system: T‐cell proliferation; design: method as in PMID 29254508; conditions: preclinical; cited from earlier work
# tumor growth = system: tumor growth; design: method as in PMID 29254508; conditions: preclinical; cited from earlier work
# arginase = system: arginase; design: method as in earlier work; conditions: phase I/II studies; cited from earlier work
# [3] = INCB001158 monotherapy, 33 patients with microsatellite‐stable metastatic colorectal cancer
# [4] = in combination with gemcitabine/cisplatin, phase I/II, advanced biliary tract cancer
# [5] = in combination with pembrolizumab, 43 patients with microsatellite‐stable colorectal cancer
compound,measurement,setting,value
C[C@H](N)C(=O)N1C[C@H](CCCB(O)O)[C@](N)(C(=O)O)C1 [INCB001158],Serious TEAEs (terms),[1]; human,grade 2 inguinal hernia (n = 1)
same,TEAE: ALT increased,[1]; human,0 n (%)
same,TEAE: AST increased,[1]; human,0 n (%)
same,TEAE: Amylase increased,[1]; human,0 n (%)
same,TEAE: Anemia,[1]; human,1 (16.7) n (%)
same,TEAE: Blood creatinine increased,[1]; human,0 n (%)
same,TEAE: Diarrhea,[1]; human,1 (16.7) n (%)
same,TEAE: Nausea,[1]; human,0 n (%)
same,TEAE: Pruritus,[1]; human,0 n (%)
same,TEAE: Pyrexia,[1]; human,0 n (%)
same,TEAE: Rash,[1]; human,0 n (%)
same,TRAEs reported (terms),[1]; human,diarrhea (n = 1) and anemia and hyperbilirubinemia (n = 1)
same,Treatment discontinuation because of a TEAE,[1]; human,0 n (%)
same,Grade 3 AEs reported but not occurring during the treatment window,[1],anemia
same,Best overall response: Complete response,"advanced solid tumors; RECIST v1.1, investigator",0 n (%)
same,Best overall response: Partial response,"advanced solid tumors; RECIST v1.1, investigator",0 n (%)
same,Best overall response: Progressive disease,"advanced solid tumors; RECIST v1.1, investigator",3 (50.0) n (%)
same,Best overall response: Stable disease,"advanced solid tumors; RECIST v1.1, investigator",3 n (%) and 3 (50.0) n (%)
same,Objective response rate,"advanced solid tumors; RECIST v1.1, investigator",0 [0–45.9] n (%) [95% CI]
same,DCR,"advanced solid tumors; RECIST v1.1, 95% CI, 11.8–88.2",50%
same,Urine orotic acid,urea cycle; change from baseline,no marked rises
same,Symptoms of significant urea cycle inhibition,"urea cycle; e.g., unexplained anorexia, nausea, vomiting",no symptoms
same,Plasma ammonia,urea cycle; patients receiving INCB001158,no concurrent increases
same,Urea cycle inhibition,urea cycle; patients receiving INCB001158,no evidence of consistent urea cycle inhibition
same,DCR,[2]; [3],27%
same,Number of PRs,[2]; [3],1
same,ORR,[2]; [4],24%
same,Patients with SD,[2]; [4],42%
same,DCR,[2]; [5],30%
same,Number of PRs,[2]; [5],3
same,T‐cell proliferation in the presence of inhibitory granulocytes,T‐cell proliferation,restored T‐cell proliferation
same,Antitumor activity in mouse models,tumor growth,demonstrated antitumor activity
same,Tumor growth when combined with ICB,tumor growth,synergistically inhibited tumor growth
same,Plasma arginine levels,arginase,increase in plasma arginine levels
